# Reference: US7135466B2 (Kirin Beer Kabushiki Kaisha, priority 1999, dated 2006)
# Target: T1, c-kit (Homo sapiens, UniProt P10721)
# T1 construct: MO7e (human megakaryocytic leukemia cell line) which had been arrested for 20 hr; endogenous in cells; host or cells: MO7e human megakaryocytic leukemia cell line
# Test: Inhibitory activity against c-kit autophosphorylation (MO7e cells, h-SCF)
# Type: cell-based
# Conditions: MO7e cells, 50 ng/ml h-SCF; read-out: c-kit IC50
# How it was run: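 Growth-arrested (20 hr) MO7e; cpd in DMSO, 1 hr; h-SCF 50 ng/ml, 5 min; lyse. ELISA: anti-pTyr (PY-20) capture, anti-c-kit 1° Ab, HRP anti-rabbit 2° Ab, A450.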
# T1 sequence (P10721 26-976): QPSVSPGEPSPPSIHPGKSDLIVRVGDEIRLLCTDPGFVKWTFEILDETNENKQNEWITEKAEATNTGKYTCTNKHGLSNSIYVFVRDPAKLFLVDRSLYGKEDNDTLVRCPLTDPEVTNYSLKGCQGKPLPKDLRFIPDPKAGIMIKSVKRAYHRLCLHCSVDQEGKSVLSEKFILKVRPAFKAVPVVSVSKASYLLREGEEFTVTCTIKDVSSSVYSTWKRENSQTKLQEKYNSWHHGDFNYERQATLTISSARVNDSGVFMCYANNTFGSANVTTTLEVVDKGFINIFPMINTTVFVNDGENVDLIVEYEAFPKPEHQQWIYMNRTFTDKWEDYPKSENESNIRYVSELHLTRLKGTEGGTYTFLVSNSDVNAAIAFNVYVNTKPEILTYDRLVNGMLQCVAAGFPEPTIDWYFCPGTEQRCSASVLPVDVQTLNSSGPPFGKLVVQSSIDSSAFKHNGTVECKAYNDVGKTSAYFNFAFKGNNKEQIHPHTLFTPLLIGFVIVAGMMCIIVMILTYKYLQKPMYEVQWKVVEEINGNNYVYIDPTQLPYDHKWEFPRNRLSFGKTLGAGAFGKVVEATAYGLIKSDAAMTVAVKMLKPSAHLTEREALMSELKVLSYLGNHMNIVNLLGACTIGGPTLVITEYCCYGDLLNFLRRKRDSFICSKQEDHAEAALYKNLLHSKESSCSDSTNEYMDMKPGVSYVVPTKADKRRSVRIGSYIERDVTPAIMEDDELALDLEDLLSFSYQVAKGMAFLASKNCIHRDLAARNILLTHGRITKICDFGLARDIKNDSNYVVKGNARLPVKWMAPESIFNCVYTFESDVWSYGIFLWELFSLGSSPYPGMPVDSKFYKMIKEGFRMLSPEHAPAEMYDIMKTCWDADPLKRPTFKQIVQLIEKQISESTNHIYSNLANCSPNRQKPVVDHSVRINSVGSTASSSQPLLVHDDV
row,Compound,IC50 [nM]
1,"COc1ccc(NC(=O)COc2ccc(Oc3ccnc4cc(OC)c(OC)cc34)cc2)cc1 [Example 780, N1-(4-Methoxyphenyl)-2-{4-[(6,7-dimethoxy-4-quinolyl)oxy]phenoxy}acetamide]",48
2,"COc1cc2nccc(Oc3ccc(OCC(=O)Nc4ccccc4C)cc3)c2cc1OC [Example 782, N1-(2-Methylphenyl)-2-{4-[(6,7-dimethoxy-4-quinolyl)oxy]phenoxy}acetamide]",365

# Same assay, conditions: MO7e cells, h-SCF 50 ng/ml; read-out: c-kit IC50
row,Compound,IC50 [nM]
1,"COc1cc2ncnc(Oc3ccc(NC(=O)OCc4ccccc4)c(Cl)c3)c2cc1OC [Example 225, Benzyl N-{2-chloro-4-[(6,7-dimethoxy-4-quinazolinyl)oxy]phenyl}carbamate]",453
2,"C=CCCCOC(=O)Nc1ccc(Oc2ccnc3cc(OC)c(OC)cc23)c(C)c1C [Example 268, 4-Pentenyl N-{4-[(6,7-dimethoxy-4-quinolyl)oxy]-2,3-dimethylphenyl}carbamate]",34
3,"C=CCCCOC(=O)Nc1ccc(Oc2ccnc3cc(OC)c(OC)cc23)cc1 [Example 266, 4-Pentenyl N-{4-[(6,7-dimethoxy-4-quinolyl)oxy]phenyl}carbamate]",34
4,"COc1cc2nccc(Oc3ccc(NC(=O)OCc4ccc(Cl)cc4)cc3)c2cc1OC [Example 229, 4-Chlorobenzyl N-{4-[(6,7-dimethoxy-4-quinolyl)oxy]phenyl}carbamate]",47
5,"COc1cc2nccc(Oc3ccc(NC(=O)Oc4ccccc4)cc3)c2cc1OC [Example 216, Phenyl N-{4-[(6,7-dimethoxy-4-quinolyl)oxy]phenyl}carbamate]",19
6,"COc1cc2nccc(Oc3ccc(NC(=O)OCc4ccccc4Cl)cc3)c2cc1OC [Example 227, 2-Chlorobenzyl N-{4-[(6,7-dimethoxy-4-quinolyl)oxy]phenyl}carbamate]",194
7,"COc1cc2nccc(Oc3ccc(NC(=O)OC4CCCCC4)c(C)c3C)c2cc1OC [Example 222, Cyclohexyl N-{4-[(6,7-dimethoxy-4-quinolyl)oxy]-2,3-dimethylphenyl}carbamate]",101

# Same assay, conditions: MO7e cells, h-SCF stimulation; read-out: c-kit IC50
row,Compound,IC50 [nM]
1,"COc1cc2nccc(Oc3ccc(NCCOc4ccccc4)cc3C)c2cc1OC [Example 875, N-{4-[(6,7-Dimethoxy-4-quinolyl)oxy]-3-methylphenyl}-N-(2-phenoxyethyl)amine]",115
2,"COc1cc2ncnc(Oc3ccc(NCCOc4ccccc4C)cc3)c2cc1OC [Example 862, N-{4-[(6,7-Dimethoxy-4-quinazolinyl)oxy]phenyl}-N-[2-(2-methylphenoxy)ethyl]amine]",933
3,"COc1cc2nccc(Oc3ccc(NCCOc4c(OC)cccc4OC)cc3)c2cc1OC [Example 856, N-[2-(2,6-Dimethoxyphenoxy)ethyl]-N-{4-[(6,7-dimethoxy-4-quinolyl)oxy]phenyl}amine]",255
4,"CCc1ccccc1OCCNc1ccc(Oc2ccnc3cc(OC)c(OC)cc23)cc1 [Example 861, N-{4-[(6,7-Dimethoxy-4-quinolyl)oxy]phenyl}-N-[2-(2-ethylphenoxy)ethyl]amine]",132
5,"COc1cc2nccc(Oc3ccc(SCCOc4ccc(Cl)cc4)cc3)c2cc1OC [Example 818, 4-(4-{[2-(4-Chlorophenoxy)ethyl]sulfanyl}phenoxy)-6,7-dimethoxyquinoline]",205
6,"COc1cc2nccc(Oc3ccc(NC(=S)NC(=O)c4cccc(C(F)(F)F)c4)cc3Cl)c2cc1OC [Example 951, N-{3-Chloro-4-[(6,7-dimethoxy-4-quinolyl)oxy]phenyl}-N′-[3-(trifluoromethyl)benzoyl]-thiourea]",124
7,"COc1cc2nccc(Oc3ccc(NC(=S)NC(=O)c4ccccc4C)cc3F)c2cc1OC [Example 912, N-{4-[(6,7-Dimethoxy-4-quinolyl)oxy]-3-fluorophenyl}-N′-(2-methylbenzoyl)thiourea]",497
8,"COc1cc2nccc(Oc3ccc(NC(=S)NC(=O)c4ccc(Cl)cc4)cc3)c2cc1OC [Example 960, N-(4-Chlorobenzoyl)-N′-{4-[(6,7-dimethoxy-4-quinolyl)oxy]phenyl}thiourea]",629
9,COc1cc2nccc(Oc3ccc(NC(=S)NC(=O)c4ccc(Cl)c(Cl)c4)cc3)c2cc1OC [Example 1120],778
10,"COc1cc2nccc(Oc3ccc(N(C)CCOc4ccc(F)cc4)cc3)c2cc1OC [Example 867, N-{4-[(6,7-Dimethoxy-4-quinolyl)oxy]phenyl}-N-[2-(4-fluorophenoxy)ethyl]-N-methylamine]",191
11,"COc1cc2nccc(Oc3ccc(SCCOc4ccc(F)cc4)cc3)c2cc1OC [Example 824, 4-(4-{[2-(4-Fluorophenoxy)ethyl]sulfanyl}phenoxy)-6,7-dimethoxyquinoline]",268
12,"COc1cc2nccc(Oc3ccc(NC(=S)NC(=O)c4cccc(Br)c4)cc3F)c2cc1OC [Example 946, N-(3-Bromobenzoyl)-N′-{4-[(6,7-dimethoxy-4-quinolyl)oxy]-3-fluorophenyl}thiourea]",142
13,"COc1cc2ncnc(Oc3ccc(SCCCCOc4ccccc4F)cc3)c2cc1OC [Example 848, 4-(4-{[4-(2-Fluorophenoxy)butyl]sulfanyl}phenoxy)-6,7-dimethoxyquinazoline]",943
14,"COc1cc2nccc(Oc3ccc(SCCOc4ccccc4Cl)cc3)c2cc1OC [Example 819, 4-(4-{[2-(2-Chlorophenoxy)ethyl]sulfanyl}phenoxy)-6,7-dimethoxyquinoline]",212

# Same assay, conditions: Mo7e, figure in parentheses in −( ); at 1000 nM
row,Compound,inhibition at 1 µM [%]
1,"COc1cc2nccc(Oc3ccc(NC(=S)NC(=O)c4cccc(C)c4)c([N+](=O)[O-])c3)c2cc1OC [Example 953, N-{4-[(6,7-Dimethoxy-4-quinolyl)oxy]-2-nitrophenyl}-N′-(3-methylbenzoyl)thiourea]",32
2,"CCCCC(CCCC)OC(=O)Nc1ccc(Oc2ncnc3cc(OC)c(OC)cc23)cc1Cl [Example 372, 1-Butylpentyl N-{2-chloro-4-[(6,7-dimethoxy-4-quinazolinyl)oxy]phenyl}carbamate]",14
3,"COc1cc2nccc(Oc3ccc(NC(=S)NC(=O)c4ccc(F)cc4)cc3Cl)c2cc1OC [Example 979, N-{3-Chloro-4-[(6,7-dimethoxy-4-quinolyl)oxy]phenyl}-N′-(4-fluorobenzoyl)thiourea]",25
4,"COc1cc2nccc(Oc3ccc(NC(=S)NC(=O)c4c(Cl)cccc4Cl)cc3F)c2cc1OC [Example 1112, N-(2,6-Dichlorobenzoyl)-N′-{4-[(6,7-dimethoxy-4-quinolyl)oxy]-3-fluorophenyl}thiourea]",19
5,"COc1cc2nccc(Oc3ccc(NC(=S)NC(=O)c4ccccc4C)c(C)c3C)c2cc1OC [Example 1085, N-{4-[(6,7-Dimethoxy-4-quinolyl)oxy]-2,3-dimethylphenyl}-N′-(2-methylbenzoyl)thiourea]",25
6,"COc1cc2nccc(Oc3ccc(NC(=S)NC(=O)c4ccccc4C(F)(F)F)c(F)c3)c2cc1OC [Example 910, N-{4-[(6,7-Dimethoxy-4-quinolyl)oxy]-2-fluorophenyl}-N′-[2-(trifluoromethyl)benzoyl]thiourea]",38
7,"COc1cc2nccc(Oc3ccc(NC(=S)NC(=O)c4c(F)cccc4F)cc3Cl)c2cc1OC [Example 1020, N-{3-Chloro-4-[(6,7-dimethoxy-4-quinolyl)oxy]phenyl}-N′-(2,6-difluorobenzoyl)thiourea]",11
8,"COc1cc2nccc(Oc3ccc(NC(=S)NC(=O)c4ccc(F)cc4F)cc3Cl)c2cc1OC [Example 1208, N-{3-Chloro-4-[(6,7-dimethoxy-4-quinolyl)oxy]phenyl}-N′-(2,4-difluorobenzoyl)thiourea]",22
9,"COc1ccc(C(=O)NC(=S)Nc2ccc(Oc3ccnc4cc(OC)c(OC)cc34)cc2F)cc1 [Example 969, N-{4-[(6,7-Dimethoxy-4-quinolyl)oxy]-2-fluorophenyl}-N′-(4-methoxybenzoyl)thiourea]",19
10,"COc1cc2ncnc(Oc3ccc(NC(=S)NC(=O)c4ccc(Cl)cc4Cl)cc3)c2cc1OC [Example 1207, N-(2,4-Dichlorobenzoyl)-N′-{4-[(6,7-dimethoxy-4-quinazolinyl)oxy]phenyl}thiourea]",16
11,"COc1cc2ncnc(Oc3ccc(NC(=S)NC(=O)c4ccc(Cl)cc4)cc3)c2cc1OC [Example 985, N-(4-Chlorobenzoyl)-N′-{4-[(6,7-dimethoxy-4-quinazolinyl)oxy]phenyl}thiourea]",31
12,"COc1cc2nccc(Oc3ccc(NC(=S)NC(=O)c4ccccc4C)c(C)c3)c2cc1OC [Example 1090, N-{4-[(6,7-Dimethoxy-4-quinolyl)oxy]-2-methylphenyl}-N′-(2-methylbenzoyl)thiourea]",30
13,"COc1cc2nccc(Oc3ccc(NC(=S)NC(=O)c4ccc(Cl)cc4)c(C)c3)c2cc1OC [Example 1089, N-(4-Chlorobenzoyl)-N′-{4-[(6,7-dimethoxy-4-quinolyl)oxy]-2-methylphenyl}thiourea]",28

# Same assay, conditions: Mo7e, figure within parentheses in −( ) or >1000( ); at 1000 nM
row,Compound,inhibition at 1 µM [%]
1,"CCCCC(CCCC)OC(=O)Nc1ccc(Oc2ncnc3cc(OC)c(OC)cc23)cc1[N+](=O)[O-] [Example 508, 1-Butylpentyl N-{4-[(6,7-dimethoxy-4-quinazolinyl)oxy]-2-nitrophenyl}carbamate]",28
2,"CCN(CC)CCCNC(=S)Nc1ccc(Oc2ncnc3cc(OC)c(OC)cc23)cc1 [Example 531, N-{4-[(6,7-Dimethoxy-4-quinazolinyl)oxy]phenyl}-N′-(3-diethylaminopropyl)thiourea]",31

# Same assay, conditions: figure in parentheses in −( ); at 1000 nM; 1 µM
row,Compound,c-kit inhibition (%) at 1000 nM
1,"COc1cc2nccc(Oc3ccc(NC(=S)NC(=O)Cc4ccccc4)c(C)c3C)c2cc1OC [Example 1206, N-{4-[(6,7-Dimethoxy-4-quinolyl)oxy]-2,3-dimethylphenyl}-N′-(2-phenylacetyl)thiourea]",−(27) %
